Like-named read-outs stand apart in the source and are kept apart here.
How the values were obtained:
[1] = system: MCF-7 breast cancer cell line; assay: In vitro cytotoxicity, MTT assay; conditions: Homo sapiens
Description: In vitro cytotoxic activity:
Firstly, cultures were delivered into sterile area then each vial was supplied with 3 mL of medium or balanced salt solution free from phenol red and serum. Cultures were subjected to incubation foe 2-4 g. After the incubation period, MTT solubilization solution was added to remove the produced formazan crystals. Spectrophotometric measurement of absorbance was carried out at 690 nm for the background which then subtracted from absorbance measured at 570 nm. Five different drug concentrations were used 100, 25, 6.3, 1.6 and 0.4 nM and measured in triplicate.
Cell cycle analysis and Apoptotic assay
was determined using Annexin V-FITC Apoptosis Detection Kit (Bio Vision) according to the manufacturer’s procedures. Briefly, cell lines were cultured and incubated with each of the tested compounds for 48 h. Then, the cells were collected by centrifugation and resuspended in 500 μl of 1X binding buffer. 5 μl of Annexin V-FITC was added and 5 μl of propidium iodide (PI 50 mg/ml, optional.). The cells were incubated at room temperature for
Em = 530 nm) using FITC signal detector and PI staining was analyzed by the phycoerythrin emission signal detector.
Apoptotic assay: cell lines were cultured and incubated with each of the tested compounds for 48 h.
Then, the cells were collected by centrifugation and resuspended in 500 μl of 1X binding buffer. 5 μl of Annexin V-FITC was added and 5 μl of propidium iodide (PI 50 mg/ml, optional.). the cells were incubated at room temperature for 5 min in the dark.
signal detector and PI staining was analyzed by the phycoerythrin emission signal detector.

[2] = target: hCA IX (Homo sapiens, UniProt Q16790); conditions: cited from earlier work
[3] = target: hCA XII (Homo sapiens, UniProt O43570); conditions: cited from earlier work
Sequence of hCA XII (O43570 25-354): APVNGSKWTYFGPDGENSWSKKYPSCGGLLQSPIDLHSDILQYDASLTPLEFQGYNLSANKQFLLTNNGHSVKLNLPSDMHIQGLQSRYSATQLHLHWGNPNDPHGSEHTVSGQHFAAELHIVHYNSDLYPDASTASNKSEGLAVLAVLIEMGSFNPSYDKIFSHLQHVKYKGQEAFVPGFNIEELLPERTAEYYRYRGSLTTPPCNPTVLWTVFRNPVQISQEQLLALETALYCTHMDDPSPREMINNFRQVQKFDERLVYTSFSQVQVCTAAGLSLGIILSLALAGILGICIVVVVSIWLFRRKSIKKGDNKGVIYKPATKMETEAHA

Compound	IC50 ([1]; MCF7, read-out: IC50 (µM) ± SD cytotoxic activity, MCF-7, MTT, normal conditions) [µM]	IC50 ([1]; MCF7, read-out: IC50 (µM) ± SD cytotoxic activity, MCF-7, MTT, under hypoxia) [µM]	Ki [2] [nM]	Ki [3] [nM]
COc1cccc2c1C(=O)c1c(O)c3c(c(O)c1C2=O)C[C@@](O)(C(=O)CO)C[C@@H]3O[C@H]1C[C@H](N)[C@H](O)[C@H](C)O1 [Doxorubicin, doxorubicin, reference compound]	11.6 ± 0.46	2.72 ± 0.11		
COc1ccc(C2CC(C3=CC=CCC3=S)=NN2c2ccc(S(N)(=O)=O)cc2)c(OC)c1OC (stereo not shown) [IV]			44	9

— article PMC12454493, “Insight on novel sulfamoylphenyl pyrazole derivatives as anticancer carbonic anhydrase inhibitors” (Molecular Diversity, 2024)
